Reference: patent US20080214506A1, “Novel use of ion channel active compound, meperidine, to mediate process of accelerated wound healing” (priority 2002, published 2008)

Tested on: surgical wound
Test: meperidine subcutaneous infiltration as local anesthetic in exodontia and oral surgery, clinical observation over five years
Conditions: for blood loss per case: used as the local anesthetic
Source text: Normal healing after surgical and third molar procedures can result in painful sequelae up to 14 days after surgery, which frequently require after-hour intervention by the surgeon. Among these sequelae are localized osteotitis (dry socket), trismus, facial edema, and protracted bleeding. For the purposes of this invention, the definition of “healed extraction site” will be a surgical wound that presents as normal clinical dental ridge architecture with pink gingival tissue and without classic granulation tissue, erythema, or edema.
For subcutaneous injection buccal or labial to extraction sites, meperidine is delivered in a standard insulin syringe pre-loaded with 40 mg meperidine in preservative-free solution (available as 1 cc (100 mg) ampules or 1 cc (100 mg) multidose vials). […] Consequently, early on, the use of meperidine for oral surgery was standardized as preservative-free and limited to low doses of 5-20 mg per extraction site with a maximum of 120 mg for any one individual. […] The surgical procedure also involves the concurrent use of intravenous barbituates (hexibarbitol), 0.2 mg atropine, 2 mg dexarnethasone, and concurrent use of 100% oxygen. Nitrous oxide, 20-40%, may be used intermittently during the case to assist the phobic dental patient through the procedure. Additionally each patient is encouraged to take orally 2000 units of vitamin C (adult dose) the day before surgery and 2000 units per day for 5 days postoperatively. […] (A thiophene local anesthetic has been used on rare occasions.)
The infiltration process usually includes 5-15 mg in the dental sulcus with 2-3 mg infused in the attached gingiva. No periodontal ligament or intraosseous injection of meperidine is used.

[1] = healed extraction site, injection during surgery, five year period

Nc1ccccc1 [aminobenzene]
blood loss per case (four impacted third molars): 70-150 cc

CCOC(=O)C1(c2ccccc2)CCN(C)CC1 [meperidine]
cases presenting with pink surgical site tissue including the mucoperiostial flap (3-4 days post surgery): 60-80%
post-operative bleeding or wound management problems (10 months, April 2001 through February 2002, prophylactic antibiotics not always used): No post-operative bleeding or wound management problems developed
patients healed before day 5 postoperatively (before the dry socket can occur): 80%
time after injection at which rapid clotting is seen (during surgery): three
time for extraction socket to form a complete clot with no further bleeding (during surgery): 2 to 5 min
blood loss per case, rarely went over (four impacted third molars): ≤ 20 cc
blood loss per case (four impacted third molars): 2-10 cc
patients in whom healing occurred in 3-4 days [1]: 80%
patients in whom healing occurred in 5-10 days [1]: 5%
patients in whom healing occurred in 1 day [1]: 15%
intraoperatively cardiac monitored arrythmias (human, in vivo): disappeared
laryngiospasms requiring muscle paralyzing agents (human, in vivo): not experienced
paresthesia (human, in vivo): can occur
clinical numbness (immediate postoperative, infiltration): without any marked clinical numbness
post-operative infections (in 5 years): no post-operative infections
trismus or temeromandibular joint dysfunction requiring physical therapy (in 5 years): no cases
relief of oral surgical pain from extractions (infiltrated subcutaneously buccal or labial to extraction site): clinically relieve oral surgical pain
dry sockets (over 5 years): disappeared from the practice
time after suturing until clotting satisfactory for discharge (patient with a factor deficiency disease): 15 min
tissue reaction observed clinically (solution containing a preservative, subcutaneous injection at extraction sites): excessive facial edema and tissue necrosis
nausea (total body dose under 120 mg): rare
